The target of the assay is APJ receptor (Homo sapiens (Human), UniProt P35414). The assay can be described thus: [35S]GTPγS binding assay on membranes from CHO cells stably expressing human APJ receptor. It is filed as biochemical. To be noted: membranes of CHO cells stably expressing human APJ receptor, means of several independent experiments, read-out: Activity hAPJ SPA EC50 IP. As for the experimental part:
The human APJ receptor was cloned by polymerase chain reaction and the gene encoding the receptor was subcloned in pFLAG-CMV™-3 expression vector (Sigma, Saint Louis, Mo. USA) in-house at Amgen. A GTPγS binding assay was performed on membranes prepared from CHO cells stably expressing human APJ receptor. The optimum experimental conditions for the concentrations of GDP, MgCl2, and NaCl in the assay buffer were initially determined. The assay was performed in assay buffer [20 mM HEPES, pH 7.5, 5 mM MgCl2, and 0.1% (w/v) BSA with 200 mM NaCl, 3 μM GDP] and membranes expressing human APJ receptor/well along with WGA PS beads. The reaction was initiated by addition of 0.2 nM [^35S]GTPγS (Perkin Elmer Life and Analytical Sciences, Waltham USA) in the absence or presence of various ligands and incubated at RT for 90 min. Nonspecific binding was determined in the presence of 100 μM GTPγS and was always less than 0.2% of total binding. All the results presented are means of several independent experiments and analyzed by non-linear regression methods using commercially available program Prism (GraphPad, San Diego, Calif.) to obtain EC50 detailed in Table 26.
On the technique in general: GTPγS is a poorly hydrolysed GTP analogue; its binding reports G protein activation.

APJ receptor, sequence (P35414 whole entry): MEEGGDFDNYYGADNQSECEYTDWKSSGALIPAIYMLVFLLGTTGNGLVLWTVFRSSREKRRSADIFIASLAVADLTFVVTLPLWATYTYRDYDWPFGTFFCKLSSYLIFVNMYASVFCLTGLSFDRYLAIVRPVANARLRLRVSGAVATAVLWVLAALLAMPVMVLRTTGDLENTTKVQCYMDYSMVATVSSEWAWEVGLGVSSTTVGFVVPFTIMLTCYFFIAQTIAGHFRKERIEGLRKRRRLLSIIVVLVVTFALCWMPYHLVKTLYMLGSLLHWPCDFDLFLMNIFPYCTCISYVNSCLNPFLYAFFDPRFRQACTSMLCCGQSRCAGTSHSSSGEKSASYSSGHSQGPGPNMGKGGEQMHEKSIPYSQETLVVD

One may read the EC50 as the midpoint of the concentration-response curve. As to `COc1cccc(OC)c1-n1c(NS(=O)(=O)[C@H](C)[C@@H](O)c2cn3ccccc3n2)nnc1-c1ccc(C)o1` (racemic) [Example 269.0, (1R,2S)—N-(4-(2,6-Dimethoxyphenyl)-5-(5-methyl-2-furanyl)-4H-1,2,4-triazol-3-yl)-1-hydroxy-1-imidazo[1,2-a]pyridin-2-yl-2-propanesulfonamide and (1S,2R)—N-(4-(2,6-dimethoxyphenyl)-5-(5-methyl-2-furanyl)-4H-1,2,4-triazol-3-yl)-1-hydroxy-1-imidazo[1,2-a]pyridin-2-yl-2-propanesulfonamide], the EC50 was determined as 0.49 nM.
With `COc1cccc(OC)c1-n1c(NS(=O)(=O)[C@H](C)[C@@H](O)c2cc3n(n2)CCCO3)nnc1-c1ccc(C)o1` (racemic) [Example 290.0] the figure was 5 nM; with `COCC1(n2c(NS(=O)(=O)[C@@H](C)[C@H](OC)c3ncc(Cl)cn3)nnc2-c2ccc(C)o2)CC1` [Example 385.0, (1R,2S)-1-(5-chloro-2-pyrimidinyl)-1-methoxy-N-(4-(1-(methoxymethyl)cyclopropyl)-5-(5-methyl-2-furanyl)-4H-1,2,4-triazol-3-yl)-2-propanesulfonamide], 0.38 nM.
With `COc1cccc(OC)c1-n1c(NS(=O)(=O)C[C@@](C)(F)c2ncc(C#N)cn2)nnc1-c1ccc(C)o1` (racemic) [Example 229.0, (2S)-2-(5-Cyano-2-pyrimidinyl)-N-(4-(2,6-dimethoxyphenyl)-5-(5-methyl-2-furanyl)-4H-1,2,4-triazol-3-yl)-2-fluoro-1-propanesulfonamide and (2R)-2-(5-cyano-2-pyrimidinyl)-N-(4-(2,6-dimethoxyphenyl)-5-(5-methyl-2-furanyl)-4H-1,2,4-triazol-3-yl)-2-fluoro-1-propanesulfonamide] the figure was 0.39 nM; with `CC[C@H](Cc1ncc(F)cn1)S(=O)(=O)Nc1nnc(-c2ccc(C)o2)n1-c1c(OC)cccc1OC` (single isomer, unassigned) [Example 134.0, (R)—N-(4-(2,6-dimethoxyphenyl)-5-(5-methylfuran-2-yl)-4H-1,2,4-triazol-3-yl)-1-(5-fluoropyrimidin-2-yl)butane-2-sulfonamide or (S)—N-(4-(2,6-dimethoxyphenyl)-5-(5-methylfuran-2-yl)-4H-1,2,4-triazol-3-yl)-1-(5-fluoropyrimidin-2-yl)butane-2-sulfonamide], 10 nM.
For the compound `COc1cccc(OC)c1-n1c(NS(=O)(=O)[C@@H](C)[C@H](O)c2cc3n(n2)CCCO3)nnc1-c1ccc(C)o1` (single isomer, unassigned) [Example 292.0, (1R,2S)-1-(6,7-Dihydro-5H-pyrazolo[5,1-b][1,3]oxazin-2-yl)-N-(4-(2,6-dimethoxyphenyl)-5-(5-methyl-2-furanyl)-4H-1,2,4-triazol-3-yl)-1-hydroxy-2-propanesulfonamide or (1S,2R)-1-(6,7-dihydro-5H-pyrazolo[5,1-b][1,3]oxazin-2-yl)-N-(4-(2,6-dimethoxyphenyl)-5-(5-methyl-2-furanyl)-4H-1,2,4-triazol-3-yl)-1-hydroxy-2-propanesulfonamide], the EC50 stood at 5.1 nM.
With `COc1cccc(OC)c1-n1c(NS(=O)(=O)C[C@H](O)c2ccc(C#N)cn2)nnc1-c1ccc(C)o1` (single isomer, unassigned) [Example 66.0, (2R)-2-(5-Cyano-2-pyridinyl)-N-(4-(2,6-dimethoxyphenyl)-5-(5-methyl-2-furanyl)-4H-1,2,4-triazol-3-yl)-2-hydroxyethanesulfonamide or (2S)-2-(5-cyano-2-pyridinyl)-N-(4-(2,6-dimethoxyphenyl)-5-(5-methyl-2-furanyl)-4H-1,2,4-triazol-3-yl)-2-hydroxyethanesulfonamide] the figure was 0.32 nM; with `COc1cccc(OC)c1-n1c(NS(=O)(=O)CCc2ncc(Cl)cc2-c2cc[nH]n2)nnc1-c1ccco1` [Example 223.0, 2-(5-chloro-3-(1H-pyrazol-3-yl)-2-pyridinyl)-N-(4-(2,6-dimethoxyphenyl)-5-(2-furanyl)-4H-1,2,4-triazol-3-yl)ethanesulfonamide], 0.32 nM.

The values are drawn from patent US10736883B2, “Triazole furan compounds as agonists of the APJ receptor” (AMGEN INC., priority 2016, dated 2020).
